Measurements from patent US20240059691A1 (KALVISTA PHARMACEUTICALS LIMITED, priority 2020, published 2024).

Experiments:
Assay type in all cases: biochemical
[1] = biological target: Human Factor XIIa (Homo sapiens (Human), UniProt P00748); test: Determination of FXIIa inhibition (fluorogenic substrate H-DPro-Phe-Arg-AFC, IC50 assay); conditions: substrate H-DPro-Phe-Arg-AFC at Km, 25° C.; class scale A-G
Method in brief: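 IC50 derived from % remaining activity, taken as the linear fluorescence rate over a 5 min read at 25° C. Substrate H-DPro-Phe-Arg-AFC was used at its Km (Michaelis-Menten) with human FXIIa and serial compound dilutions, 25° C.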

[2] = biological target: Plasma Kallikrein (Homo sapiens (Human), UniProt P03952); test: Determination of related protease inhibition: Plasma Kallikrein (fluorogenic substrate at Km); conditions: 25° C., read-out: IC50 (human PKal)
Method in brief: (§1)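 Fluorescence release from a Km-level fluorogenic substrate, read for 5 min at 25 °C, gave the linear rate per minute for each inhibitor concentration. Rates were converted to % of uninhibited human enzyme activity; IC50 = inhibitor concentration producing 50% inhibition.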

[3] = biological target: FXa (Homo sapiens (Human), UniProt P00742); test: Determination of related protease inhibition: FXa (fluorogenic substrate at Km); conditions: 25° C.
Method in brief: as §1

[4] = biological target: Thrombin (Homo sapiens (Human), UniProt P00734); test: Determination of related protease inhibition: Thrombin (fluorogenic substrate at Km); conditions: 25° C.
Description: (§2) Determination of Related Protease Inhibition
(§3) In vitro inhibition of related proteases was determined using an ([…] assay based on standard literature methods (see e.g. Shori et al., Biochem. Pharmacol., 1992, 43, 1209; Bouckaert et al., European Journal of Medicinal Chemistry 110 (2016) 181). Human serine protease enzymes Plasma Kallikrein, KLK1, FXa, Plasmin, Thrombin and Trypsin were assayed for enzymatic activity using an appropriate fluorogenic substrate at Km concentration, FXIa at fixed substrate concentration of 100 μM, and various concentrations of the test compound. Protease activity was measured by monitoring the accumulation of liberated fluorescence from the substrate over […]. The linear rate of fluorescence increase per minute was expressed as percentage (%) activity. IC50 values were calculated as the concentration of inhibitor giving 50% inhibition of the uninhibited enzyme activity (100%).

[5] = biological target: FXIa (Homo sapiens (Human), UniProt P03951); test: Determination of related protease inhibition: FXIa (fixed substrate concentration of 100 μM); conditions: 25° C.
Description: as §2, §3

[6] = biological target: KLK1 (Homo sapiens (Human), UniProt P06870); test: Determination of related protease inhibition: KLK1 (fluorogenic substrate at Km); conditions: 25° C.
Method in brief: as §1

Sequence of Plasma Kallikrein (P03952 391-638): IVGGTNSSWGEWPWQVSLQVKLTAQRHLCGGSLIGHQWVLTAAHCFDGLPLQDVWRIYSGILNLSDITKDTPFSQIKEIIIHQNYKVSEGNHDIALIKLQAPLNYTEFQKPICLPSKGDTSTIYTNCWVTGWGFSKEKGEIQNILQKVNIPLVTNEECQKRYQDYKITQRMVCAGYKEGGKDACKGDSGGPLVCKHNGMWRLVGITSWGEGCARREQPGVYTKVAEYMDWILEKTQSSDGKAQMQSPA
Sequence of Plasma Kallikrein (P03952 20-390 partner): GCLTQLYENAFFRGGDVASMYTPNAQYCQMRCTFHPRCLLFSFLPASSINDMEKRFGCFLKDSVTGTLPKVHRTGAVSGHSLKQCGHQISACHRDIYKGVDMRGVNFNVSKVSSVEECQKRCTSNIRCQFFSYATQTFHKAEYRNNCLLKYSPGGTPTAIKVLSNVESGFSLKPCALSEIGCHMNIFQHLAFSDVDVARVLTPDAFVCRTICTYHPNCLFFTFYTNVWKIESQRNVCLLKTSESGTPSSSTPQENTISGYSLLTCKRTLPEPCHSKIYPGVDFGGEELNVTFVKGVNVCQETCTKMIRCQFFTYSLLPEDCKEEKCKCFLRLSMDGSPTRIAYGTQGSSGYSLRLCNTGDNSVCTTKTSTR
Sequence of Human Factor XIIa (P00748 373-615): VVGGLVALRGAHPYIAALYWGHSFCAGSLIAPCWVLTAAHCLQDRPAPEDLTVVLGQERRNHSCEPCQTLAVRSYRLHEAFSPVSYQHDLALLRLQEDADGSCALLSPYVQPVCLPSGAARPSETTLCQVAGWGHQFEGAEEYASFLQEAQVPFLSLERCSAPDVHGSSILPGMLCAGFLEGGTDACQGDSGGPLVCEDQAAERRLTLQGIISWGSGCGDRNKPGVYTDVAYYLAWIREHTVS
Sequence of FXa (P00742 235-488): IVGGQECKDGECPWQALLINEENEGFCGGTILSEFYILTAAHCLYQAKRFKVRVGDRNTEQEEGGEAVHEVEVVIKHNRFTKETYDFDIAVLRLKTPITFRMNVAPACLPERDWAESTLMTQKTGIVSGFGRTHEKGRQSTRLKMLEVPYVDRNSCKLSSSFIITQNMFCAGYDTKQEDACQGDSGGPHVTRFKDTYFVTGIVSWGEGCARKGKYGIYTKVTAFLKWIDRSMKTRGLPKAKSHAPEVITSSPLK
Sequence of FXa (P00742 41-179 partner): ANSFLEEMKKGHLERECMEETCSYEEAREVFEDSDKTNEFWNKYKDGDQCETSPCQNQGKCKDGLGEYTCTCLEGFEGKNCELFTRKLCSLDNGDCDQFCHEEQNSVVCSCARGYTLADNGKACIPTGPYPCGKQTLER
Sequence of FXIa (P03951 388-625): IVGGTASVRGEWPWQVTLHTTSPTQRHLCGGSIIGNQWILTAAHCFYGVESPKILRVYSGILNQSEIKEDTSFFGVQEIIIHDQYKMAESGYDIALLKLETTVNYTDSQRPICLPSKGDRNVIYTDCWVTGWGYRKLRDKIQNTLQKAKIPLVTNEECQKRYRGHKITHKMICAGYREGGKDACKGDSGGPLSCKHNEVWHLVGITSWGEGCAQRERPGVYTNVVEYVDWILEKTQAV
Sequence of FXIa (P03951 19-387 partner): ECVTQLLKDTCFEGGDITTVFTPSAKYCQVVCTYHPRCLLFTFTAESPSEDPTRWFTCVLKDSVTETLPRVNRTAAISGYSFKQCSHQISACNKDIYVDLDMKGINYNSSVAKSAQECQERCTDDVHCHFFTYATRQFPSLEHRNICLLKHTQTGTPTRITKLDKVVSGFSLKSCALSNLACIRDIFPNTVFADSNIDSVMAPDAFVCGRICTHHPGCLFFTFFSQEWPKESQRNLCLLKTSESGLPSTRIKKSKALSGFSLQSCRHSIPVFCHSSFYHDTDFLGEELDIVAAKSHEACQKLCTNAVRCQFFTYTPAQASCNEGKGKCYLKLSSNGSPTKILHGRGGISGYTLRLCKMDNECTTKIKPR
Sequence of KLK1 (P06870 25-262): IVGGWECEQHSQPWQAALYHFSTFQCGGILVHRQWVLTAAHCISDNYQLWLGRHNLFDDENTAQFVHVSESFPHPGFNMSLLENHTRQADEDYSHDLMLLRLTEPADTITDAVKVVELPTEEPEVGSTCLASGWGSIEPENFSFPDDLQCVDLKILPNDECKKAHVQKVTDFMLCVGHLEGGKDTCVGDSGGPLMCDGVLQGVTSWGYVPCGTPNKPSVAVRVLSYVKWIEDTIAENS

| IC50 [1] | IC50 [2] | IC50 [3] | IC50 [4] | IC50 [5] | IC50 [6] | SMILES |
| --- | --- | --- | --- | --- | --- | --- |
| 0.1 to 0.3 µM | 3 to 10 µM | 3 to 10 µM | 10 to 40 µM | > 40 µM |  | CN1CCC(COc2ccc(CNc3ccc4c(N)nccc4c3)cn2)CC1 [Example 1005, N6-((6-((1-methylpiperidin-4-yl)methoxy)pyridin-3-yl)methyl)isoquinoline-1,6-diamine] |
| 0.1 to 0.3 µM | 3 to 10 µM | 10 to 40 µM | 10 to 40 µM | > 40 µM |  | CCN1CCC(COc2ccc(CNc3ccc4c(N)nccc4c3)cn2)CC1 [Example 1010, 6-N-({6-[(1-ethylpiperidin-4-yl)methoxy]pyridin-3-yl}methyl)isoquinoline-1,6-diamine] |
| 0.1 to 0.3 µM | 3 to 10 µM | 3 to 10 µM | 3 to 10 µM | > 20 µM |  | CN1CCC(COc2ncc(CNc3ccc4c(N)nccc4c3)cn2)CC1 [Example 1013, 6-N-({2-[(1-methylpiperidin-4-yl)methoxy]pyrimidin-5-yl}methyl)isoquinoline-1,6-diamine] |
| 0.1 to 0.3 µM | 1 to 3 µM | 3 to 10 µM | 3 to 10 µM | > 40 µM |  | CN1CCC(CCc2ccc(CNc3ccc4c(N)nccc4c3)cc2)CC1 [Example 2177, N6-(4-(2-(1-methylpiperidin-4-yl)ethyl)benzyl)isoquinoline-1,6-diamine] |
| 1 to 3 µM | 3 to 10 µM | 3 to 10 µM | 1 to 3 µM |  | 0.3 to 1 µM | Cn1ccnc1CCOc1cc(CNc2ccc3c(N)nccc3c2)ccn1 [Example 4283, 6-N-({2-[2-(1-methylimidazol-2-yl)ethoxy]pyridin-4-yl}methyl)isoquinoline-1,6-diamine] |
| 0.1 to 0.3 µM | 10 to 40 µM | 0.3 to 1 µM | 10 to 40 µM |  | 1 to 3 µM | CN1CCC(CNc2cc(CNc3ccc4c(N)nccc4c3)ccn2)CC1 [Example 4284, 6-N-[(2-{[(1-methylpiperidin-4-yl)methyl]amino}pyridin-4-yl)methyl]isoquinoline-1,6-diamine] |
| 0.3 to 1 µM | 10 to 40 µM | > 40 µM | > 40 µM |  | 3 to 10 µM | CN1CCC(CNc2cc(CNc3cccc4c(N)nccc34)ccn2)CC1 [Example 4286, N5-((2-(((1-methylpiperidin-4-yl)methyl)amino)pyridin-4-yl)methyl)isoquinoline-1,5-diamine] |
| 1 to 3 µM | > 20 µM | > 100 µM | > 4 µM |  | 3 to 10 µM | Cc1cc(NCc2ccnc(OCC3CCN(C)CC3)c2)cc2ccncc12 [Example 4464, 8-methyl-N-((2-((1-methylpiperidin-4-yl)methoxy)pyridin-4-yl)methyl)isoquinolin-6-amine] |
| 1 to 3 µM | 10 to 40 µM | 3 to 10 µM | 3 to 10 µM |  | 1 to 3 µM | CN1CC(C2CN(c3cc(CNc4ccc5c(N)nccc5c4)ccn3)C2)C1 [Example 5435, N6-((2-(1′-methyl-[3,3′-biazetidin]-1-yl)pyridin-4-yl)methyl)isoquinoline-1,6-diamine] |

Continued, compound first:

| SMILES | IC50 [1] | IC50 [2] | IC50 [3] | IC50 [4] | IC50 [5] | IC50 [6] |
| --- | --- | --- | --- | --- | --- | --- |
| CN1CC2C[C@H]1C[C@H]2OCc1ccc(CNc2ccc3c(N)nccc3c2)c(F)c1 (single isomer, unassigned) [Example 2198, N6-(2-fluoro-4-((((4S*,5R*)-2-methyl-2-azabicyclo[2.2.1]heptan-5-yl)oxy)methyl)benzyl)isoquinoline-1,6-diamine] | 0.1 to 0.3 µM | 3 to 10 µM | 3 to 10 µM | 10 to 40 µM | > 20 µM |  |
| CN1CC2C[C@@H]1C[C@H]2OCc1ccc(CNc2ccc3c(N)nccc3c2)c(F)c1 (single isomer, unassigned) [Example 2199, N6-(2-fluoro-4-((((4R*,5R*)-2-methyl-2-azabicyclo[2.2.1]heptan-5-yl)oxy)methyl)benzyl)isoquinoline-1,6-diamine] | 0.01 to 0.1 µM | 3 to 10 µM | 3 to 10 µM | 10 to 40 µM | > 20 µM |  |
| Nc1nccc2cc(NCc3ccc(OCC4CCn5ccnc5C4)nc3)ccc12 (stereo not drawn) [Example 1006, N6-((6-((5,6,7,8-tetrahydroimidazo[1,2-a]pyridin-7-yl)methoxy)pyridin-3-yl)methyl)isoquinoline-1,6-diamine] | 0.1 to 0.3 µM | 1 to 3 µM | 1 to 3 µM | 3 to 10 µM | > 40 µM |  |
| CN1CCC(COc2ccc(CNc3ccc4cnccc4c3)cn2)CC1 [Example 1008, N-((6-((1-methylpiperidin-4-yl)methoxy)pyridin-3-yl)methyl)isoquinolin-6-amine] | 3 to 10 µM | 10 to 40 µM | > 20 µM | > 20 µM | > 20 µM |  |
| CN1CCC(COc2ccc(CNc3cccc4c(N)nccc34)cn2)CC1 [Example 1009, N5-((6-((1-methylpiperidin-4-yl)methoxy)pyridin-3-yl)methyl)isoquinoline-1,5-diamine] | 0.1 to 0.3 µM | 3 to 10 µM | > 40 µM | > 40 µM | > 40 µM |  |
| CC(C)N1CCC(COc2ccc(CNc3ccc4c(N)nccc4c3)cn2)CC1 [Example 1012, N6-((6-((1-isopropylpiperidin-4-yl)methoxy)pyridin-3-yl)methyl)isoquinoline-1,6-diamine] | 0.1 to 0.3 µM | 1 to 3 µM | 10 to 40 µM | 3 to 10 µM | > 20 µM |  |
| CN1CCC(CCc2ccc(CNc3cccc4c(N)nccc34)cc2)CC1 [Example 2178, 5-N-({4-[2-(1-methylpiperidin-4-yl)ethyl]phenyl}methyl)isoquinoline-1,5-diamine] | 0.01 to 0.1 µM | 10 to 40 µM | > 40 µM | > 40 µM | > 40 µM |  |
| Cn1ccnc1CCOc1cc(CNc2cccc3c(N)nccc23)ccn1 [Example 4282, 5-N-({2-[2-(1-methylimidazol-2-yl)ethoxy]pyridin-4-yl}methyl)isoquinoline-1,5-diamine] | 1 to 3 µM | > 40 µM | 10 to 40 µM | > 40 µM |  | 3 to 10 µM |
| CN1CCC(CNc2cc(CNc3ccc4c(N)ncc(Cl)c4c3)ccn2)CC1 [Example 4285, 4-Chloro-N6-((2-(((1-methylpiperidin-4-yl)methyl)amino)pyridin-4-yl)methyl)isoquinoline-1,6-diamine] | 0.01 to 0.1 µM | > 40 µM | 10 to 40 µM | > 40 µM |  | 3 to 10 µM |
| CN1CCC(NC(=O)c2cc(CNc3cccc4c(N)nccc34)ccn2)CC1 [Example 4289, 4-(((1-aminoisoquinolin-5-yl)amino)methyl)-N-(1-methylpiperidin-4-yl)picolinamide] | 0.3 to 1 µM | > 40 µM | > 40 µM | > 40 µM |  | 10 to 40 µM |
| CC(C)N1C[C@H]2C[C@@H]1CN2Cc1cc(CNc2cccc3c(N)nccc23)ccn1 [Example 4294, 5-N-[(2-{[(1R,4R)-5-isopropyl-2,5-diazabicyclo[2.2.1]heptan-2-yl]methyl}pyridin-4-yl)methyl]isoquinoline-1,5-diamine] | 10 to 40 µM | > 40 µM | > 40 µM | > 40 µM |  | 10 to 40 µM |
| Cc1cn2c(n1)CC(COc1cc(CNc3cccc4c(N)nccc34)ccn1)CC2 (stereo not drawn) [Example 4319, N5-[[2-[(2-methyl-5,6,7,8-tetrahydroimidazo[1,2-a]pyridin-7-yl)methoxy]-4-pyridyl]methyl]isoquinoline-1,5-diamine] | 0.1 to 0.3 µM | 3 to 10 µM | 10 to 40 µM | > 40 µM |  | 3 to 10 µM |
| Nc1nccc2cc(NCc3ccnc(-c4cccc(CN5CCCC5)c4)c3)ccc12 [Example 4434, 6-N-({2-[3-(pyrrolidin-1-ylmethyl)phenyl]pyridin-4-yl}methyl)isoquinoline-1,6-diamine] | 0.1 to 0.3 µM | > 40 µM | 3 to 10 µM | > 40 µM |  | 3 to 10 µM |
| CC(C)N1CCC(CN(CCCO)C(=O)c2cccc(CNc3cccc4c(N)nccc34)c2)CC1 [Example 4441, 3-{[(1-aminoisoquinolin-5-yl)amino]methyl}-N-(3-hydroxypropyl)-N-[(1-isopropylpiperidin-4-yl)methyl]benzamide] | 0.1 to 0.3 µM | 10 to 40 µM | > 40 µM | > 40 µM |  | 1 to 3 µM |
| Nc1nccc2c(NCc3ccnc(OCC4CCn5c(nnc5C(F)F)C4)c3)cccc12 (stereo not drawn) [Example 4467, N5-((2-((3-(difluoromethyl)-5,6,7,8-tetrahydro-[1,2,4]triazolo[4,3-a]pyridin-7-yl)methoxy)pyridin-4-yl)methyl)isoquinoline-1,5-diamine] | 0.1 to 0.3 µM | > 40 µM | 10 to 40 µM | 10 to 40 µM |  | 3 to 10 µM |
